Data set [1] deals with T1, human 5-HT6 receptor (Homo sapiens, UniProt P50406).
T1 construct: host or cells: CHO-K1 cells, stably transfected; membranes prepared in house
Nature of the data set: Human 5-HT6 Receptor Binding Assay ([3H]LSD displacement, scintillation beads). To be noted: membranes of CHO-K1 cells with recombinant human 5-HT6, 4 nM [3H]LSD, read-out: h5-HT6 (Ki).

Data set [2] deals with rats. The note with it: compared to an untreated control group; cited from earlier work.
Data set [3] relates to rats. To be noted: rat model of tonic, persistent pain; cited from earlier work.

As a reminder, the melting point is the temperature, or range, at which the solid turns liquid. In general, Ki refers to a measure of affinity in units of concentration, obtained from inhibition or displacement.

Where two headings read alike, the source gives them in different places. A value given as a limit tells only on which side of the number the result lay.

T1 sequence (P50406 whole entry): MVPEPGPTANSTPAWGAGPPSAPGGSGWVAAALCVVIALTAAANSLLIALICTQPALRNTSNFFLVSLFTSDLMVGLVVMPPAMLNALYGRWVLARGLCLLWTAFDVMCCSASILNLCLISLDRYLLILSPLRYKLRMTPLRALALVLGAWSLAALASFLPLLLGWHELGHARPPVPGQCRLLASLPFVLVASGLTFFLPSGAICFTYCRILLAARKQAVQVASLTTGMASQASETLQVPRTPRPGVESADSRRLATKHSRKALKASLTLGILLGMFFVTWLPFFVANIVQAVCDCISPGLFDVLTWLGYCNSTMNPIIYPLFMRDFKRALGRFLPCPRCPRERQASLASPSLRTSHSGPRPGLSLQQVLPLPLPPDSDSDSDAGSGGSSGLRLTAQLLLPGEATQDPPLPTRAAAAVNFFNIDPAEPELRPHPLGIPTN

Regarding `Cc1c(Cl)cccc1S(=O)(=O)c1ccc2c(c1)OC1CNCCC21` (stereo not drawn) [Example 66], the melting point fell in the range of 188 to 189 °C. Moreover, in data set [1] (Table 1, class symbols), the Ki is less than 500 nM.

Regarding `O=S(=O)(c1ccc2c(c1)OC1CNCCC21)c1cccc2nsnc12` (stereo not drawn) [Example 67], the melting point was in the range of 195 to 196 °C. In data set [1] (Table 1, class symbols), the inhibition constant (Ki) was less than 500 nM.

`Cn1ccc2c(S(=O)(=O)c3ccc4c(c3)OC3CNCCC43)cccc21` (stereo not drawn) [Example 68] had a melting point of 164 to 165 °C. For the same compound, the inhibition constant (Ki) in data set [1] (Table 1, class symbols) was less than 500 nM.

`O=S(=O)(c1ccc2c(c1)OC1CNCCC21)c1nc2ccccc2[nH]1` (stereo not drawn) [Example 69]: the melting point was 188 to 189 °C. Also, the Ki in data set [1] (Table 1, class symbols) is less than 500 nM.

Turning to `Cc1ccc2nsnc2c1S(=O)(=O)c1ccc2c(c1)OC1CNCCC21` (stereo not drawn) [Example 70], the melting point was 200 to 201 °C. The inhibition constant (Ki) in data set [1] (Table 1, class symbols) was greater than 1000 nM.

Consider `COc1ccc2sc(S(=O)(=O)c3ccc4c(c3)OC3CNCCC43)nc2c1` (stereo not drawn) [Example 71], for which the melting point was 222 to 223 °C. In data set [1] (Table 1, class symbols), the Ki is greater than 1000 nM.

Take `O=S(=O)(c1ccc2c(c1)OC1CNCCC21)c1cccc2nonc12` (stereo not drawn) [Example 72]: the melting point lay in the range of 189 to 190 °C. Besides, the Ki in data set [1] (Table 1, class symbols) was greater than 1000 nM.

Take `CC(=O)Nc1cccc(S(=O)(=O)c2ccc3c(c2)OC2CNCCC32)c1` (stereo not drawn) [Example 73]: the melting point was 228 to 229 °C. Besides, in data set [1] (Table 1, class symbols), the Ki is less than 500 nM.

The compound `O=S(=O)(c1cccc(OCc2ccccc2)c1)c1ccc2c(c1)OC1CNCCC21` (stereo not drawn) [Example 74] showed a melting point of 238 to 240 °C. Moreover, in data set [1] (Table 1, class symbols), the inhibition constant (Ki) is less than 500 nM.

`O=S(=O)(c1cccc(-n2cnnn2)c1)c1ccc2c(c1)OC1CNCCC21` (stereo not drawn) [Example 75]: the melting point is greater than 300 °C. Also, in data set [1] (Table 1, class symbols), the inhibition constant (Ki) was greater than 1000 nM.

As for `COc1cc(OCc2ccccc2)cc(S(=O)(=O)c2ccc3c(c2)OC2CNCCC32)c1` (stereo not drawn) [Example 76], the melting point fell in the range of 202 to 203 °C. Besides, the inhibition constant Ki in data set [1] (Table 1, class symbols) is less than 500 nM.

As for `COc1ccc(Cl)cc1S(=O)(=O)c1ccc2c3c(oc2c1)CNCC3` [Example 80], the melting point was 258 to 259 °C. For the same compound, in data set [1] (Table 1, class symbols), the Ki was less than 500 nM.

With `O=S(=O)(c1ccc2c3c(oc2c1)CNCC3)c1cccc(Cl)c1F` [Example 81], the melting point lay in the range of 245 to 246 °C. Besides, the Ki in data set [1] (Table 1, class symbols) was less than 500 nM.

The compound `Cc1c(Cl)cccc1S(=O)(=O)c1ccc2c3c(oc2c1)CNCC3` [Example 82] returned a melting point of 258 to 259 °C. In addition, the Ki in data set [1] (Table 1, class symbols) is less than 500 nM.

Take `O=S(=O)(c1ccc2c3c(oc2c1)CNCC3)c1cccc2nsnc12` [Example 83]: the melting point lay in the range of 242 to 243 °C. Further, the inhibition constant Ki in data set [1] (Table 1, class symbols) was less than 500 nM.

`Cn1ccc2cccc(S(=O)(=O)c3ccc4c5c(oc4c3)CNCC5)c21` [Example 84] returned a melting point of 224 to 225 °C. The Ki in data set [1] (Table 1, class symbols) was less than 500 nM.

Turning to `COc1cc(OC(C)C)cc(S(=O)(=O)c2ccc3c4c(oc3c2)CNCC4(C)C)c1` [Example 85], the melting point is 246 to 247 °C. Moreover, the Ki in data set [1] (Table 1, class symbols) is less than 500 nM.

As for `CC1(C)CNCc2oc3cc(S(=O)(=O)c4cccc(F)c4)ccc3c21` [Example 86], the melting point lay within 291 to 293 °C. Also, in data set [1] (Table 1, class symbols), the Ki is less than 500 nM.

`CC(C)Oc1cccc(S(=O)(=O)c2ccc3c4c(oc3c2)CNCC4(C)C)c1` [Example 87] gave a melting point of 251 to 252 °C. In data set [1] (Table 1, class symbols), the inhibitory constant (Ki) was less than 500 nM.

As to `COc1cc2c(cc1S(=O)(=O)c1cccc(Cl)c1Cl)C1CCNCC1O2` (stereo not drawn) [Example 88], the melting point was 216 to 217 °C. Further, the inhibitory constant (Ki) in data set [1] (Table 1, class symbols) is less than 500 nM.

`COc1cc2c(cc1S(=O)(=O)c1cccc(F)c1)C1CCNCC1O2` (stereo not drawn) [Example 89] yielded a melting point of 197 to 204 °C. In data set [1] (Table 1, class symbols), the inhibitory constant (Ki) is less than 500 nM.

Take `CC12CCNCC1Oc1ccc(S(=O)(=O)c3cccc(F)c3)cc12` (stereo not drawn) [Example 90]: the melting point lay in the range of 168 to 171 °C. Besides, in data set [1] (Table 1, class symbols), the Ki is less than 500 nM.

The compound `CC12CCNCC1Oc1ccc(S(=O)(=O)c3ccccn3)cc12` (stereo not drawn) [Example 91] returned a melting point of 255 to 257 °C. The inhibitory constant (Ki) in data set [1] (Table 1, class symbols) was greater than 1000 nM.

`CC12CCNCC1Oc1ccc(S(=O)(=O)c3ccc(F)cc3)cc12` (stereo not drawn) [Example 92] displayed a melting point of 163 to 165 °C. Besides, in data set [1] (Table 1, class symbols), the Ki is greater than 1000 nM.

Compound `CC12CCNCC1Oc1ccc(S(=O)(=O)c3ccc(F)cc3F)cc12` (stereo not drawn) [Example 93] displayed a melting point of 215 to 216 °C. Besides, the inhibition constant (Ki) in data set [1] (Table 1, class symbols) was 500 to 1000 nM.

In turn, `CC12CCNCC1Oc1ccc(S(=O)(=O)c3cc(F)cc(F)c3)cc12` (stereo not drawn) [Example 94] registered a melting point of 196 to 198 °C. The Ki in data set [1] (Table 1, class symbols) is less than 500 nM.

`COc1ccc(S(=O)(=O)c2ccc3c(c2)C2(C)CCNCC2O3)cc1F` (stereo not drawn) [Example 95] showed a melting point of 185 to 187 °C. Further, in data set [1] (Table 1, class symbols), the Ki is less than 500 nM.

`CC(=O)Nc1ccc(S(=O)(=O)c2ccc3c(c2)C2(C)CCNCC2O3)cc1` (stereo not drawn) [Example 96]: the melting point was 212 to 214 °C. Also, the Ki in data set [1] (Table 1, class symbols) is greater than 1000 nM.

`CC12CCNCC1Oc1ccc(S(=O)(=O)c3ccccc3CO)cc12` (stereo not drawn) [Example 97] gave a melting point of 204 to 206 °C. Moreover, the Ki in data set [1] (Table 1, class symbols) is greater than 1000 nM.

On to `CC(C)Oc1cccc(S(=O)(=O)c2ccc3c(c2)C2(C)CCNCC2O3)c1` (stereo not drawn) [Example 98], for which the melting point was in the range of 162 to 164 °C. For the same compound, the Ki in data set [1] (Table 1, class symbols) is less than 500 nM.

`CC12CCNCC1Oc1ccc(S(=O)(=O)c3ccccc3F)cc12` (stereo not drawn) [Example 99, 6-[(2-fluorophenyl)sulfonyl]-4a-methyl-1,2,3,4,4a,9a-hexahydro[1]benzofuro[2,3-c]pyridine] had a melting point of 260 to 262 °C. The inhibitory constant (Ki) in data set [1] (Table 1, class symbols) was less than 500 nM. The Ki in data set [1] (specific data) is 243 nM.

Turning to `CC12CCNCC1Oc1ccc(S(=O)(=O)c3cccc(Cl)c3)cc12` (stereo not drawn) [Example 100], the melting point lay in the range of 160 to 162 °C. The inhibition constant Ki in data set [1] (Table 1, class symbols) was less than 500 nM.

For the compound `CC12CCNCC1Oc1ccc(S(=O)(=O)c3cccc(Cl)c3Cl)cc12` (stereo not drawn) [Example 101], the melting point lay in the range of 210 to 212 °C. Besides, the Ki in data set [1] (Table 1, class symbols) is less than 500 nM.

The compound `CC1CNCc2oc3cc(S(=O)(=O)c4cccc(F)c4)ccc3c21` (stereo not drawn) [Example 102] returned a melting point greater than 300 °C. In data set [1] (Table 1, class symbols), the Ki was less than 500 nM.

In turn, `CC12CCNCC1Oc1ccc(S(=O)(=O)c3cccc(Cl)c3)cc12` (stereo not drawn) [Example 103] came in with a melting point of 218 to 220 °C. In addition, in data set [1] (Table 1, class symbols), the inhibition constant Ki is less than 500 nM.

Regarding `CC12CCNCC1Oc1ccc(S(=O)(=O)c3cccc(Cl)c3)cc12` (stereo not drawn) [Example 104], the melting point was 216 to 218 °C. Besides, the Ki in data set [1] (Table 1, class symbols) was greater than 1000 nM.

`CC12CCNCC1Oc1ccc(S(=O)(=O)c3cccc(Cl)c3Cl)cc12` (stereo not drawn) [Example 105] came in with a melting point of 242 to 244 °C. For the same compound, in data set [1] (Table 1, class symbols), the inhibition constant (Ki) is less than 500 nM.

As for `CC12CCNCC1Oc1ccc(S(=O)(=O)c3cccc(Cl)c3Cl)cc12` (stereo not drawn) [Example 106], the melting point lay within 244 to 246 °C. The inhibition constant (Ki) in data set [1] (Table 1, class symbols) is less than 500 nM.

With `CC(=O)NCC1(C)NCCc2c1oc1cc(S(=O)(=O)c3cccc(F)c3)ccc21` (stereo not drawn) [Example 492, N-({7-[(3-fluorophenyl)sulfonyl]-1-methyl-1,2,3,4-tetrahydro[1]benzofuro[2,3-c]pyridin-1-yl}methyl)acetamide], the melting point is 140 to 155 °C (dec.). In addition, the inhibition constant (Ki) in data set [1] (Table 1, class symbols) is less than 500 nM.

Turning to `CC1(CN)NCCc2c1oc1cc(S(=O)(=O)c3cccc(F)c3)ccc21` (stereo not drawn) [Example 493, 1-{7-[(3-Fluorophenyl)sulfonyl]-1-methyl-1,2,3,4-tetrahydro[1]benzofuro[2,3-c]pyridin-1-yl}methanamine], the melting point is > 250 °C (dec.). In data set [1] (Table 1, class symbols), the Ki is less than 500 nM.

Compound `O=S(=O)(c1cccc(O)c1)c1ccc2c3c(oc2c1)CNCC3` [Example 627, 3-(1,2,3,4-Tetrahydro-benzo[4,5]furo[2,3-c]pyridine-7-sulfonyl)-phenol] displayed a melting point of 279 to 281 °C. Also, the Ki in data set [1] (Table 1, class symbols) is less than 500 nM.

In turn, `CCNC(=O)Oc1cccc(S(=O)(=O)c2ccc3c(c2)OC2CNCCC32)c1` (stereo not drawn) [Example 628, 3-[1,2,3,4,4a,9a-Hexahydro[1]benzofuro[2,3-c]pyridin-7-ylsulfonyl]phenyl ethylcarbamate] had a melting point of 217 to 219 °C. Moreover, the inhibition constant Ki in data set [1] (Table 1, class symbols) was less than 500 nM.

With `CN1CCN(c2cccc3c(S(=O)(=O)c4ccccc4)c[nH]c23)CC1` [RO 4368554], the “non-REM (NREM) sleep” value in data set [2] is “increase in non-REM (non-rapid eye movement or NREM) sleep”.

Regarding `COc1ccc(NS(=O)(=O)c2sc3ccc(Cl)cc3c2C)cc1N1CCNCC1` [SB-271046], in data set [3], the antinociceptive effect result is “short-lived, antinociceptive effect”.

The values above are taken from US8765779B2, “Tricyclic derivatives and their pharmaceutical use and compositions” (Cephalon, Inc., priority 2009, dated 2014).
